# Measurements as given in patent publication US5854276A, “Substance WF16616, process for production thereof, and use thereof” (Fujisawa Pharmaceutical Co., Ltd., priority 1995, dated 1998).
# How the values were obtained:
# Candida albicans No. 7 = assay: Antifungal activity, microbroth dilution in YNBD medium, Candida albicans No. 7; type: cell-based; conditions: 1×10^4 cfu/100 μl/well, 37° C., 22 hours, 0.5% glucose-containing YNBD, microscopical observation
# Method: (§1) The antifungal activity of WF16616 substnace was measured in a 0.5% glucose-containing yeast nitrogen base (YNBD) medium by a microbroth dilution analysis method using a 96-well microtiter plate. This substance was dissolved in methanol, and was diluted to twice in sequence in the microtiter plate using the YNBD medium. The test microorganism was inoculated at a concentration of 1×10^4 cfu/100 μl/well. Candida albicans and Aspergillus fumigatus were incubated in the above-mentioned plate at 37° C. for 22 hours, and Cryptococcus neoformans at 30° C. for 48 hours, respectively. Then, MIC was measured through microscopical observation.
# Candida albicans FP633 = assay: Antifungal activity, microbroth dilution in YNBD medium, Candida albicans FP633; type: cell-based; conditions: 1×10^4 cfu/100 μl/well, 37° C., 22 hours, 0.5% glucose-containing YNBD, microscopical observation
# Method: as §1
# [1] = test system: Aspergillus fumigatus FD050; assay: Antifungal activity, microbroth dilution in YNBD medium, Aspergillus fumigatus FD050; type: cell-based; conditions: 1×10^4 cfu/100 μl/well, 37° C., 22 hours, 0.5% glucose-containing YNBD, microscopical observation
# Method: as §1
# [2] = test system: Cryptococcus neoformans YC203; assay: Antifungal activity, microbroth dilution in YNBD medium, Cryptococcus neoformans YC203; type: cell-based; conditions: 1×10^4 cfu/100 μl/well, 30° C., 48 hours, 0.5% glucose-containing YNBD, microscopical observation
# Method: as §1
# ICR female mice = assay: Toxicity test, intraperitoneal injection in mice; type: in vivo; conditions: 5 mg/kg intraperitoneally once a day for three days
# Method: WF16616 substance was intraperitoneally injected into each of five 5-week-old ICR female mice at a dose of 5 mg/kg once a day for three days.
compound,measurement,setting,value
CCC(C)CC(C)CCCCCCCCC(=O)NC1CC(O)C(O)NC(=O)C2C(O)C(C)CN2C(=O)C(C(O)CC(N)=O)NC(=O)C(C(O)C(O)c2ccc(O)c(OS(=O)(=O)O)c2)NC(=O)C2CC(O)CN2C(=O)C(C(C)O)NC1=O (stereo not drawn) [WF16616 substance],MIC,Candida albicans No. 7,0.78 µg/mL
same,MIC,Candida albicans FP633,0.1 µg/mL
same,MIC,[1],0.16 µg/mL
same,MIC,[2],> 50 µg/mL
same,dead mice,ICR female mice; five 5-week-old ICR female mice,none of the mice were dead
same,increase in the weight of mice,ICR female mice; versus unadministered mice,quite the same as that in the weight of unadministered mice
